The text below walks through data of patent US20240286998A1, “F[…], ANALOGUES THEREOF, AND METHODS USING SAME” (Saint Joseph's University, priority 2021, published 2024).

Read-outs that look alike come from different tables or passages of the source.

Assay [1] deals with 5-HT2C (Homo sapiens (Human), UniProt P28335). Put plainly: 5-HT2C Gq-mediated calcium flux functional assay. It is filed as cell-based. On the technique in general: Calcium assays in cells follow changes in intracellular calcium, usually with a dye or a luminescent sensor.
Chain of 5-HT2C (P28335 whole entry, looked up): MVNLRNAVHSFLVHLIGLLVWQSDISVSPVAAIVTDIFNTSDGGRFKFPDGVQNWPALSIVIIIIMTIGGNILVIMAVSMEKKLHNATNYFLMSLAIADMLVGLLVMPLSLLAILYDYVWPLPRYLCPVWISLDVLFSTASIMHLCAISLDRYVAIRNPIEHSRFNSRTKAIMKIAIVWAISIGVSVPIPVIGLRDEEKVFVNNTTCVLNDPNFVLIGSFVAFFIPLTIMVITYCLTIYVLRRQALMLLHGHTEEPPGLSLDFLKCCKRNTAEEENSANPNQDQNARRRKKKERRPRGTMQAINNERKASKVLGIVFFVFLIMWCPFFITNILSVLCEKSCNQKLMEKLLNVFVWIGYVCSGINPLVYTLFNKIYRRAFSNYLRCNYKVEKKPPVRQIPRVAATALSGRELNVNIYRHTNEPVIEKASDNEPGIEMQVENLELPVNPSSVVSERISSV
The target of assay [2] is 5-HT2A (Homo sapiens (Human), UniProt P28223). The assay can be described thus: 5-HT2A Gq-mediated calcium flux functional assay. It is filed as cell-based.
The target of assay [3] is 5-HT1A (Homo sapiens (Human), UniProt P08908). The assay can be described thus: 5-HT1A Gi/o-mediated cAMP inhibition, GloSensor assay. It is filed as cell-based. Conditions: for 5-HT1A-cAMP Emax (% 5-HT): cAMP inhibition, 0.2 μM isoproterenol, IA = Inactive.
Assay [4] has as its target 5-HT2B (Homo sapiens (Human), UniProt P41595). Put plainly: 5-HT2B Gq-mediated calcium flux functional assay. It is filed as cell-based.
Assay [5] addresses Serotonin 5-HT2A (human) (Homo sapiens (Human), UniProt P28223). The assay can be described thus: 5-HT2A receptor binding, [3H]-ketanserin competition in membrane fractions. Conditions: 1 nM [3H]-ketanserin, Cheng-Prusoff, N=1-3.
The mark [6] stands for this setting: IA = Inactive, N=1-3, read-out: 5-HT2A-Ca2+ FLUX pEC50 (converted).
The mark [7] stands for this setting: IA = Inactive, N=1-3, read-out: 5-HT2B-Ca2+ FLUX pEC50 (converted).

Chain of 5-HT2B (P41595 whole entry): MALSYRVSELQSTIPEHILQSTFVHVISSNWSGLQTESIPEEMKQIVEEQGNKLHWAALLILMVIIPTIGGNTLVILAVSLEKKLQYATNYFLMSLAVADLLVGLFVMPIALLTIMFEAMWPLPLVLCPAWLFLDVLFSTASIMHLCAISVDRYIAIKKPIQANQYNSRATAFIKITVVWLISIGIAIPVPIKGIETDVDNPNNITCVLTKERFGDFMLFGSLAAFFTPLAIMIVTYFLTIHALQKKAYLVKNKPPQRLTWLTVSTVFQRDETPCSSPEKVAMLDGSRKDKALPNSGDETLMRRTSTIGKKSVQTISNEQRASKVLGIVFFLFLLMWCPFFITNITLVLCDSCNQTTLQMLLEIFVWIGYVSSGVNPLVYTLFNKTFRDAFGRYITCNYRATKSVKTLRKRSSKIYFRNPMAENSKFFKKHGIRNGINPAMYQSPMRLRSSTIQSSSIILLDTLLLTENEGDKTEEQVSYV

Take `CN(CCc1c[nH]c2ccc(F)cc12)C1CSC1` [compound 20, N-(2-(5-fluoro-1H-indol-3-yl)ethyl)-N-methylthietan-3-amine]: the “5-HT2C-Ca2+ FLUX Emax (% 5-HT)” value in assay [1] (IA = Inactive, N=1-3) is 55.0 ± 2.8 % 5-HT. For the same molecule, the EC50 in assay [1] (IA = Inactive, N=1-3, read-out: 5-HT2C-Ca2+ FLUX pEC50 (converted)) is 468 nM; in assay [2] (setting [6]), 28.8 nM; in assay [3], 794 nM; in assay [4] (setting [7]), 2.4 nM. Further, the “5-HT2A-Ca2+ FLUX Emax (% 5-HT)” value in assay [2] (IA = Inactive, N=1-3) came out at 61.8 ± 3.2 % 5-HT. The “5-HT1A-cAMP Emax (% 5-HT)” value in assay [3] turned out to be 93.1 ± 2.5 % 5-HT. Further, the “5-HT2B-Ca2+ FLUX Emax (% 5-HT)” value in assay [4] (IA = Inactive, N=1-3) turned out to be 17.3 ± 1.1 % 5-HT.

`CCN(C)CCc1c[nH]c2cc(F)c(Cl)cc12` [compound 179, 2-(5-chloro-6-fluoro-1H-indol-3-yl)-N-ethyl-N-methylethan-1-amine]: the “5-HT2A pKi ± SEM” value in assay [5] is 6.93. The EC50 in assay [1] is 22.9 nM; in assay [2], 10.7 nM; in assay [4] it was 10.7 nM. Besides, in assay [1] (IA = Inactive, N=1-3), the “5-HT2C-Ca2+ FLUX Emax (% 5-HT)” value is reported as 95.5 ± 1.0 % 5-HT. For the same molecule, in assay [2] (IA = Inactive, N=1-3), the “5-HT2A-Ca2+ FLUX Emax (% 5-HT)” value turned out to be 79.3 ± 0.7 % 5-HT. Also, the “5-HT2B-Ca2+ FLUX Emax (% 5-HT)” value in assay [4] (IA = Inactive, N=1-3) stood at 67.8 ± 0.6 % 5-HT.

Turning to `Fc1ccc2[nH]cc(CCN(C3CCC3)C3CC3)c2c1` [compound 173, N-cyclopropyl-N-(2-(5-fluoro-1H-indol-3-yl)ethyl)cyclobutanamine], the “5-HT2A pKi ± SEM” value in assay [5] came out at 6.58. The values for the EC50 in assay [1], in assay [2] and in assay [4] were 302 nM, 7.24 nM and 17.8 nM, respectively. For the same molecule, in assay [1] (IA = Inactive, N=1-3), the “5-HT2C-Ca2+ FLUX Emax (% 5-HT)” value is recorded as 80.4 ± 1.2 % 5-HT. Moreover, in assay [2] (IA = Inactive, N=1-3), the “5-HT2A-Ca2+ FLUX Emax (% 5-HT)” value is recorded as 87.4 ± 0.7 % 5-HT. For the same molecule, the “5-HT2B-Ca2+ FLUX Emax (% 5-HT)” value in assay [4] (IA = Inactive, N=1-3) is listed as 82.8 ± 0.8 % 5-HT.

In the case of `CCC(C)N(CCc1c[nH]c2ccc(F)cc12)C1CC1` (stereo not drawn) [compound 172, N-(sec-butyl)-N-(2-(5-fluoro-1H-indol-3-yl)ethyl)cyclopropanamine], the “5-HT2A pKi ± SEM” value in assay [5] came out at 6.47. Besides, the figures for the EC50 in assay [1], in assay [2] and in assay [4] were 151 nM, 3.98 nM and 6.46 nM, respectively. Further, the “5-HT2C-Ca2+ FLUX Emax (% 5-HT)” value in assay [1] (IA = Inactive, N=1-3) was 82.3 ± 1.7 % 5-HT. In addition, the “5-HT2A-Ca2+ FLUX Emax (% 5-HT)” value in assay [2] (IA = Inactive, N=1-3) turned out to be 94.0 ± 0.6 % 5-HT. In assay [4] (IA = Inactive, N=1-3), the “5-HT2B-Ca2+ FLUX Emax (% 5-HT)” value was 93.5 ± 0.8 % 5-HT.

Take `CCN(C)CCc1c[nH]c2cc(C)c(F)cc12` [compound 175, N-ethyl-2-(5-fluoro-6-methyl-1H-indol-3-yl)-N-methylethan-1-amine]: in assay [5], the “5-HT2A pKi ± SEM” value stood at 5.96. For the same molecule, the EC50 in assay [1] was 102 nM; in assay [2] it was 6.76 nM. Also, the “5-HT2C-Ca2+ FLUX Emax (% 5-HT)” value in assay [1] (IA = Inactive, N=1-3) was determined as 51.2 ± 2.0 % 5-HT. Also, in assay [2] (IA = Inactive, N=1-3), the “5-HT2A-Ca2+ FLUX Emax (% 5-HT)” value is listed as 48.6 ± 2.8 % 5-HT.

With `CCC(C)N(CCc1c[nH]c2ccc(F)cc12)C(C)C` (stereo not drawn) [compound 32, N-(2-(5-fluoro-1H-indol-3-yl)ethyl)-N-isopropylbutan-2-amine], the “5-HT2A pKi ± SEM” value in assay [5] was 5.86 ± 0.16. In addition, the EC50 is 64.6 nM in assay [1], 1.12 nM in assay [2], 1260 nM in assay [3] and 0.955 nM in assay [4]. Moreover, the “5-HT2C-Ca2+ FLUX Emax (% 5-HT)” value in assay [1] (IA = Inactive, N=1-3) is given as 101.5 ± 2.7 % 5-HT. Moreover, in assay [2] (IA = Inactive, N=1-3), the “5-HT2A-Ca2+ FLUX Emax (% 5-HT)” value was 106.8 ± 1.7 % 5-HT. Further, the “5-HT1A-cAMP Emax (% 5-HT)” value in assay [3] is 88.5 ± 2.8 % 5-HT. For the same molecule, the “5-HT2B-Ca2+ FLUX Emax (% 5-HT)” value in assay [4] (IA = Inactive, N=1-3) came out at 108.0 ± 1.8 % 5-HT.

As to `CCCN(CC)CCc1c[nH]c2c(F)c(F)c(F)cc12` [compound 165, N-ethyl-N-[2-(5,6,7-trifluoro-1H-indol-3-yl)ethyl]propan-1-amine], the “5-HT2A pKi ± SEM” value in assay [5] was determined as 6.69. For the same molecule, the EC50 in assay [1] is 38.9 nM; in assay [2] it was 4.57 nM; in assay [4], 7.41 nM. The “5-HT2C-Ca2+ FLUX Emax (% 5-HT)” value in assay [1] (IA = Inactive, N=1-3) is 102.8 ± 1.7 % 5-HT. The “5-HT2A-Ca2+ FLUX Emax (% 5-HT)” value in assay [2] (IA = Inactive, N=1-3) came to 103.0 ± 0.8 % 5-HT. Also, the “5-HT2B-Ca2+ FLUX Emax (% 5-HT)” value in assay [4] (IA = Inactive, N=1-3) was determined as 102.4 ± 0.8 % 5-HT.

Turning to `C=CCN(CCc1c[nH]c2ccc(F)cc12)C(C)C` [Example 11, N-(2-(5-fluoro-1H-indol-3-yl)ethyl)-N-isopropylprop-2-en-1-amine], the EC50 was 20.4 nM in assay [1], 0.617 nM in assay [2], 151 nM in assay [3] and 0.794 nM in assay [4]. Further, in assay [1] (IA = Inactive, N=1-3), the “5-HT2C-Ca2+ FLUX Emax (% 5-HT)” value is given as 101.5 ± 2.8 % 5-HT. The “5-HT2A-Ca2+ FLUX Emax (% 5-HT)” value in assay [2] (IA = Inactive, N=1-3) was determined as 105.4 ± 2.1 % 5-HT. Besides, in assay [3], the “5-HT1A-cAMP Emax (% 5-HT)” value is 95.5 ± 1.7 % 5-HT. For the same molecule, in assay [4] (IA = Inactive, N=1-3), the “5-HT2B-Ca2+ FLUX Emax (% 5-HT)” value is on record as 98.8 ± 1.6 % 5-HT.

Turning to `CCN(C)CCc1c[nH]c2c(Br)cc(F)cc12` [compound 174, 2-(7-bromo-5-fluoro-1H-indol-3-yl)-N-ethyl-N-methylethan-1-amine], the “5-HT2A pKi ± SEM” value in assay [5] worked out at 6.42. Moreover, the EC50 in assay [1] was 13.2 nM; in assay [2], 18.6 nM. Further, the “5-HT2C-Ca2+ FLUX Emax (% 5-HT)” value in assay [1] (IA = Inactive, N=1-3) came to 39.9 ± 1.1 % 5-HT. Moreover, the “5-HT2A-Ca2+ FLUX Emax (% 5-HT)” value in assay [2] (IA = Inactive, N=1-3) was found to be 38.2 ± 1.4 % 5-HT.

With `C#CCN(CCc1c[nH]c2ccc(F)cc12)C(C)CC` (stereo not drawn) [compound 176, N-(2-(5-fluoro-1H-indol-3-yl)ethyl)-N-(prop-2-yn-1-yl)butan-2-amine], the “5-HT2A pKi ± SEM” value in assay [5] is given as 5.89. Further, the EC50 is 191 nM in assay [1], 40.7 nM in assay [2] and 28.8 nM in assay [4]. For the same molecule, in assay [1] (IA = Inactive, N=1-3), the “5-HT2C-Ca2+ FLUX Emax (% 5-HT)” value was determined as 99.6 ± 1.5 % 5-HT. In addition, in assay [2] (IA = Inactive, N=1-3), the “5-HT2A-Ca2+ FLUX Emax (% 5-HT)” value came to 97.8 ± 1.1 % 5-HT. Further, in assay [4] (IA = Inactive, N=1-3), the “5-HT2B-Ca2+ FLUX Emax (% 5-HT)” value stood at 103.0 ± 0.6 % 5-HT.

Take `CCCN(CC)CCc1c[nH]c2c(F)c(F)ccc12` [compound 82, N-(2-(6,7-difluoro-1H-indol-3-yl)ethyl)-N-ethylpropan-1-amine]: the “5-HT2A pKi ± SEM” value in assay [5] stood at 6.52. Besides, the EC50 was 195 nM in assay [1], 10.5 nM in assay [2] and 66.1 nM in assay [4]. The “5-HT2C-Ca2+ FLUX Emax (% 5-HT)” value in assay [1] (IA = Inactive, N=1-3) was found to be 89.6 ± 1.7 % 5-HT. For the same molecule, the “5-HT2A-Ca2+ FLUX Emax (% 5-HT)” value in assay [2] (IA = Inactive, N=1-3) is 90.4 ± 0.7 % 5-HT. For the same molecule, the “5-HT2B-Ca2+ FLUX Emax (% 5-HT)” value in assay [4] (IA = Inactive, N=1-3) is on record as 86.3 ± 0.8 % 5-HT.

Regarding `CC(C)CN(C)CCc1c[nH]c2ccc(F)cc12` [compound 39, N-(2-(5-fluoro-1H-indol-3-yl)ethyl)-N,2-dimethylpropan-1-amine], in assay [5], the “5-HT2A pKi ± SEM” value came to 6.12.

Turning to `C#CCN(CCC)CCc1c[nH]c2c(F)cccc12` [compound 180, N-(2-(7-fluoro-1H-indol-3-yl)ethyl)-N-propylprop-2-yn-1-amine], the “5-HT2A pKi ± SEM” value in assay [5] is reported as 5.75. The values for the EC50 in assay [1], in assay [2] and in assay [4] were 631 nM, 79.4 nM and 38 nM, respectively. In assay [1] (IA = Inactive, N=1-3), the “5-HT2C-Ca2+ FLUX Emax (% 5-HT)” value was determined as 56.5 ± 2.1 % 5-HT. The “5-HT2A-Ca2+ FLUX Emax (% 5-HT)” value in assay [2] (IA = Inactive, N=1-3) worked out at 80.7 ± 1.6 % 5-HT. The “5-HT2B-Ca2+ FLUX Emax (% 5-HT)” value in assay [4] (IA = Inactive, N=1-3) is 92.7 ± 1.2 % 5-HT.

Regarding `CCCN(CC#N)CCc1c[nH]c2c(F)cccc12` [compound 181, 2-((2-(7-fluoro-1H-indol-3-yl)ethyl)(propyl)amino)acetonitrile], in assay [5], the “5-HT2A pKi ± SEM” value is listed as 5.75. For the same molecule, the “5-HT2A-Ca2+ FLUX Emax (% 5-HT)” value in assay [2] (IA = Inactive, N=1-3) came out at 68.7 ± 1.7 % 5-HT. In addition, the EC50 in assay [2] (setting [6]) was 58.9 nM; in assay [4] (setting [7]), 295 nM. Besides, the “5-HT2B-Ca2+ FLUX Emax (% 5-HT)” value in assay [4] (IA = Inactive, N=1-3) came out at 36.8 ± 0.7 % 5-HT.
